Experimental findings from US12565467B2, “Compounds, compositions, and methods for the treatment of inflammatory, degenerative, and neurodegenerative diseases” (Board of Supervisors of Louisiana State University and …, priority 2015, dated 2026) are described below.

Assay [1] deals with ischemic stroke (MCAo). Briefly: Ischemic stroke model, 2 h MCAo, neurological score during 7 days. The format is in vivo. The note with it: rat; for activity relative to DHA and NPD1, neurological score (FIG. 12): one hour after 2 h MCAo, 7 days; for in vivo neuroprotective effect (FIG. 12): ICV after 2 hours of MCAo. The procedure: FIG. 12. […] To test the novel elovanoids the experimental design consisted injecting the compounds into the right cerebral ventricle (5 μg/per rat, ICV), one hour after two hours of an ischemic stroke in rats and following thereafter the neurological behavior (neurological score) during 7 days. The protocol in brief was as follows. The injection was made through a surgically implanted metal canula (Alzet) into the right lateral ventricle. Two days later the right middle cerebral artery (MCA) was occluded for 2 h by means of an intraluminal nylon filament (Belayev et al, Traslational Stroke Research, 2010). Then one hour after the compounds were injected dissolved in sterile cerebrospinal fluid. The occlusion was transient performed as follows. The right common carotid artery was exposed through an incision in the neck and was isolated from surrounding tissues. The distal external carotid artery and pterygopalatine arteries were tied. A 4-cm of 3-0 monofilament nylon suture coated with poly-Lysine was introduced into the internal carotid artery and MCA. The suture position was confirmed by advancing the suture 20-22 mm from the common carotid artery bifurcation. Then, the rats were allowed to awaken from anesthesia and returned to their cages. The degree of stroke injury was assessed by neurological assessment of each rat at 60 min after onset of MCAo. […] After 2 hours of MCA occlusion, the rats were re-anesthetized temperature probes were reinserted and the intraluminal suture was removed. The neck incision was closed with silk sutures, and the animals were allowed free access to food and water. […] The methyl ester ELV2-Me is expected to first be hydrolyzed via the actions of esterases, and it may have a more delayed effect, which may be beneficial for a sustainable long-term treatment.
To test the novel elovanoids the experimental design consisted injecting the compounds into the right cerebral ventricle (5 μg/per rat, ICV), one hour after two hours of an ischemic stroke in rats and following thereafter the neurological behavior (neurological score) during 7 days. The protocol in brief was as follows. The injection was made through a surgically implanted metal canula (Alzet) into the right lateral ventricle. Two days later the right middle cerebral artery (MCA) was occluded for 2 h by means of an intraluminal nylon filament (Belayev et al, Traslational Stroke Research, 2010). Then one hour after the compounds were injected dissolved in sterile cerebrospinal fluid. The occlusion was transient performed as follows. The right common carotid artery was exposed through an incision in the neck and was isolated from surrounding tissues. The distal external carotid artery and pterygopalatine arteries were tied. A 4-cm of 3-0 monofilament nylon suture coated with poly-Lysine was introduced into the internal carotid artery and MCA. The suture position was confirmed by advancing the suture 20-22 mm from the common carotid artery bifurcation. Then, the rats were allowed to awaken from anesthesia and returned to their cages. The degree of stroke injury was assessed by neurological assessment of each rat at 60 min after onset of MCAo. […] After 2 hours of MCA occlusion, the rats were re-anesthetized temperature probes were reinserted and the intraluminal suture was removed. The neck incision was closed with silk sutures, and the animals were allowed free access to food and water. […]

The test system of assay [2] is neuronal cells in primary cultures. Put plainly: NMDA-induced toxicity in neuronal cells in primary culture, MTT assay for cell viability. The format is cell-based. The note with it: MK-801 with ELV2; NMDA receptor blocker used as control. The text has this:
FIG. 11. […] In several neurological and neurodegenerative diseases, such as stroke, epilepsy, status epilepticus, traumatic head injury, etc., as well as ophthalmological diseases, such as glaucoma, an excessive presynaptic release of the excitatory neurotransmitter glutamate takes place. As a consequence, glutamate transporters that function to remove extracellular glutamate from astrocytes and neurons are overwhelmed and the NMDA-type glutamate receptor is over-activated. This receptor is a calcium channel that therefore leads to a flooding of calcium into the postsynaptic cell. The overall phenomena is refer to as excitotoxicity that in turn leads to neuronal damage and cell death. MK801 is a known blocker of this receptor used here as a control.
In several neurological and neurodegenerative diseases, such as stroke, epilepsy, status epilepticus, traumatic head injury, etc., as well as ophthalmological diseases, such as glaucoma, an excessive presynaptic release of the excitatory neurotransmitter glutamate takes place. As a consequence, glutamate transporters that function to remove extracellular glutamate from astrocytes and neurons are overwhelmed and the NMDA-type glutamate receptor is over-activated. This receptor is a calcium channel that therefore leads to a flooding of calcium into the postsynaptic cell. The overall phenomena is refer to as excitotoxicity that in turn leads to neuronal damage and cell death. MK801 is a known blocker of this receptor used here as a control.

Assay [3] has as its system ARPE-19 cells. Put plainly: Oxidative stress induced apoptosis / cell death in ARPE-19 cells. The note with it: stressed ARPE-19 cells treated with 5 μm of 15-LOX-D1 inhibitor PD146176. The format is cell-based, human. The protocol: (§1) FIG. 5. (A) Effect of PD146176 on VLC-PUFA-inhibited apoptosis induced by OS in ARPE-19 cells. […] It is evident that 32:6 and 34:6 LCAF were able to induce a substantial amount (55 and 48% respectively) of neuroprotection compared to PD 146176 (22%) when the stressed cells were treated with 5 μm of 15-LOX-D1 inhibitor. It can be concluded that since PD146176 is the inhibitor of 15-lipooxygenase enzyme, it might be protecting the stressed RPE cells by accumulating neuroprotective agents inside the cells. (B) Comparison of cytoprotective capacities of NPD1, C32:6 and C34:6 VLC-PUFA on oxidative stress-induced apoptosis in 15-LOX-1 cells. Shown here is the comparison of neuroprotection in a 15-LOX-1-deficient cell line under oxidative stress with 32:6 and 34:6 VLC-PUFA along with NPD1. 32:6 and 34:6 LCAF were able to induce neuroprotection (45% and 40% respectively), as compared to oxidative stress (90%) under this condition. (C) Concentration dependent cytoprotection by C32:6 and C34:6 VLC-PUFA in oxidative-stress induced ARPE-19 cells. A concentration (50-500 nM) kinetic of cytoprotection induced by LCAF 32:6 and 34:6 in RPE cell culture under OS was shown here. […] We decided to use 250 nM concentrations of 32:6 and 34:6 LCAF in subsequent experiments. (D) Selected images of alive and dead cells from this study (control, OS, treatment with C32:6).
(§2) FIG. 5—(A) Effect of PD146176 on VLC-PUFA inhibited apoptosis induced by OS in ARPE-19 cells. […] It is evident that 32:6 and 34:6 LCAF were able to induce a substantial amount (55 and 48% respectively) of neuroprotection compared to PD 146176 (22%) when the stressed cells were treated with 5 μm of 15-LOX-D1 inhibitor. It can be concluded that since PD146176 is the inhibitor of 15-lipooxygenase enzyme, it might be protecting the stressed RPE cells by accumulating neuroprotective agents inside the cells. (B) Comparison of cytoprotective capacities of NPD1, C32:6 and C34:6 VLC-PUFA on oxidative stress-induced apoptosis in 15-LOX-1 cells. Shown here is the comparison of neuroprotection in a 15-LOX-1-deficient cell line under oxidative stress with 32:6 and 34:6 VLC-PUFA along with NPD1. 32:6 and 34:6 VLC-PUFA were able to induce neuroprotection (45% and 40% respectively), as compared to oxidative stress (90%) under this condition. (C) Concentration dependent cytoprotection by C32:6 and C34:6 VLC-PUFA in oxidative-stress induced ARPE-19 cells. A concentration (50-500 nM) kinetic of cytoprotection induced by VLC-PUFA 32:6 and 34:6 in RPE cell culture under OS was shown here. […] We decided to use 250 nM concentrations of 32:6 and 34:6 VLC-PUFA in subsequent experiments. (D) Selected images of alive and dead cells from this study (control, OS, treatment with C32:6).

Assay [4] has as its system human retinal pigment epithelial (RPE) cells deficient in 15-LOX-D1. Briefly: Oxidative stress (OS) induced apoptosis / cell death in 15-LOX-1-deficient human RPE cells. Type of assay: cell-based.
Text: (§3) FIG. 4. (A) Cytoprotective effects of NPD1 like compounds on OS induced apoptosis. The results shown in this figure compare the cytoprotective capacities of long chain polyunsaturated fatty acids (VLC-PUFA), elovanoids ELV1 and ELV2, and neuroprotectin D1 (NPD1) in human retinal pigment epithelial (RPE) cells deficient in 15-LOX-D1 by measuring the protection of cell deaths induced by oxidative stress (OS) by these compounds. […] (B) Elovanoid precursors protect human retinal pigment epithelial cells deficient in 15-LOX-1, unlike DHA, from oxidative stress conditions.
as §1
as §3, with “Evidence of cytoprotection by 32.6 and 34.6 VLC-PUFA in oxidative-stress induced ARPE-19 cells as detailed in (FIG. 4): (A) Cytoprotective” for “FIG. 4. (A) Cytoprotective”, “capacities of very long chain” for “capacities of long chain”
as §2, with “(D) Selected images of alive and dead cells from this study (control, OS, treatment with C32:6).” left out

Structures are written as SMILES. Entries after “also recorded” stand apart in the source; their conditions may differ.

For `CC/C=C\C[C@H](O)\C=C/C=C/C=C/[C@H](O)C/C=C\C/C=C\CCCCCCCCCCCCCCC(=O)O` [ELV2-Na, sodium (16Z,19Z,22R,23E,25E,27Z,29S,31Z)-22,29-dihydroxytetratriaconta-16,19,23,25,27,31-hexaenoate], in assay [1] (5 μg/per rat ICV), the “potency of sodium salt versus methyl ester in stroke model (FIG. 12)” value is on record as “greater potency”; the “activity relative to DHA and NPD1, neurological score (FIG. 12)” value was “more active than DHA and NPD1; also recorded: greater in vivo potency than DHA or NPD1”. For the same molecule, the “in vivo neuroprotective effect (FIG. 12)” value in assay [1] was “potent in vivo neuroprotective effects”.

As to `C[C@]12N[C@H](Cc3ccccc31)c1ccccc12` [MK-801, reference compound], the “effect of MK-801 on protection, MTT assay for cell viability (FIG. 11B)” value in assay [2] is “potentiates protection”. `c1ccc2c(c1)SCc1c-2[nH]c2ccccc12` [PD 146176, reference compound]: the “neuroprotection (FIG. 5A)” value in assay [3] stood at 22%. Turning to `CC/C=C\C[C@H](O)\C=C/C=C/C=C/[C@H](O)C/C=C\C/C=C\CCC(=O)O` [NPD1, 10R,17S-dihydroxy-docosa-4Z,7Z,11E,13E,15Z,19Z-hexaenoic acid, reference compound], the “protection of cell deaths induced by oxidative stress (FIG. 4A)” value in assay [4] (15-LOX-1-deficient human RPE cells, compared to OS (90%)) was found to be 60%. The “protection against cell death under oxidative stress conditions (FIG. 4B)” value in assay [4] (15-LOX-D1 cells under oxidative stress) was “protect against cell death”. Consider `CC/C=C\C[C@H](O)\C=C/C=C/C=C/[C@H](O)C/C=C\C/C=C\CCCCCCCCCCCCCCC(=O)OC` [ELV2-Me, methyl (16Z,19Z,22R,23E,25E,27Z,29S,31Z)-22,29-dihydroxy-tetratriaconta-16,19,23,25,27,31-hexaenoate], for which, in assay [1] (5 μg/per rat ICV), the “activity relative to DHA and NPD1, neurological score (FIG. 12)” value is “more active than DHA and NPD1; also recorded: greater in vivo potency than DHA or NPD1”. Further, in assay [1], the “in vivo neuroprotective effect (FIG. 12)” value is on record as “potent in vivo neuroprotective effects”.
